Test results taken from patent publication US20260274829A1, “NEW E3 UBIQUITIN LIGASE LIGAND, PROTEIN DEGRADATION AGENT AND USE THEREOF” (GLUETACS THERAPEUTICS (SHANGHAI) CO., LTD., priority 2023, published 2026).

Target: T1, human Cereblon WT GST-tagged protein (Homo sapiens, UniProt Q96SW2)
T1 construct: purchased CISBIO 64BDCRBNPEH
Assay: CRBN binding, HTRF CEREBLON BINDING kit
Conditions: CRBN binding, HTRF CEREBLON BINDING kit
Procedure: The CEREBLON BINDING kits (specification: 10,000 tests; product number: Catalog #64BDCRBNPEH; CISBIO company) was used to determine the CRBN binding ability of the compounds to be tested through a HTRF method (homogeneous time-resolved fluorescence). The specific methods are as follows: • 1. […] Then, 2.5 μL of human Cereblon WT GST-tagged protein solution was added to each well. Finally, 5 μL of the thoroughly mixed Thalidomide-Re reagent and GST Eu antibody working solution were added to each of the aforementioned wells. […] The blank control wells were sequentially added with 2.5 μL of diluent #9 (1×) solution, 2.5 μL of binding buffer, and 5 μL of thoroughly mixed Thalidomide-Re reagent and GST Eu antibody working solution. • 4. After sealing and incubating the solutions in the aforementioned wells at room temperature for 3 hours, the absorbance values at emission wavelengths of 620 nm and 665 nm were detected by the HTRF method using a Spark microplate reader (V3.1 SP1).
The corresponding CRBN binding inhibition rate was calculated using the following method:
[formula] [formula] [formula] • Note: OD 665 nmcompound is the absorbance value of each well of the compounds to be tested of the present disclosure at an emission wavelength of 665 nm. • OD 620 nmcompound is the absorbance value of each well of the compounds to be tested of the present disclosure at an emission wavelength of 620 nm. • OD 665 nmcontrol is the absorbance value of the blank control well at an emission wavelength of 665 nm. • OD 620 nmcontrol is the absorbance value of the blank control well at an emission wavelength of 620 nm. • OD 665 nmStd0 is the absorbance value of the solvent control well at an emission wavelength of 665 nm. • OD 620 nmStd0 is the absorbance value of the solvent control well at an emission wavelength of 620 nm.

T1 sequence (Q96SW2 whole entry): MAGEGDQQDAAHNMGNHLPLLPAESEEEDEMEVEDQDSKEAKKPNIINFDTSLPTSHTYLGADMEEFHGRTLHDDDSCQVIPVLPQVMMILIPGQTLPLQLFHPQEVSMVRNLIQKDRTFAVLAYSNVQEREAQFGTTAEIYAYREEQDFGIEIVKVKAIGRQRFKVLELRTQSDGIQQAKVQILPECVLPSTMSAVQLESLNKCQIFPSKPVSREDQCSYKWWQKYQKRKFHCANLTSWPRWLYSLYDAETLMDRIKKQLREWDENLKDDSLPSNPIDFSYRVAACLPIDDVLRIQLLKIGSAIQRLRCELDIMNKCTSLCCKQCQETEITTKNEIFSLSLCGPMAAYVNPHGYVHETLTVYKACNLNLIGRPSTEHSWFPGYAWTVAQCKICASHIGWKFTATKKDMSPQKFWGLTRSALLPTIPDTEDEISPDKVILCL

Row | SMILES | IC50 [µM]
1 | CCc1cc2c(cc1N1CCC(N3CCN(Cc4ccc(N5CCC(=O)NC5=O)cc4F)CC3)CC1)C(C)(C)c1[nH]c3cc(C#N)ccc3c1C2=O [GT-07309, 8-(4-(4-(4-(2,4-dioxotetrahydropyrimidin-1(2H)-yl)-2-fluorobenzyl)piperazin-1-yl)piperidin-1-yl)-9-ethyl-6,6-dimethyl-11-oxo-6,11-dihydro-5H-benzo[b]carbazole-3-carbonitrile] | 0.5 to 1
2 | Cc1nc2c(F)cc(-c3nc(Nc4ccc(N5CCC(N6CCN(Cc7ccc(N8CCC(=O)NC8=O)cn7)CC6)CC5)cn4)ncc3F)cc2n1C(C)C [GT-06741, 1-(6-((4-(1-(6-((5-fluoro-4-(4-fluoro-1-isopropyl-2-methyl-1H-benzo[d]imidazol-6-yl)pyrimidin-2-yl)amino)pyridin-3-yl)piperidin-4-yl)piperazin-1-yl)methyl)pyridin-3-yl)dihydropyrimidine-2,4(1H,3H)-dione] | 0.5 to 1
3 | Cc1cc(S(=O)(=O)N2CCN(Cc3cccc(N4CCC(=O)NC4=O)c3)CC2)ccc1Nc1ncc(Br)c(Nc2cccc(F)c2C(N)=O)n1 [GT-06832, 2-((5-bromo-2-((4-((4-(3-(2,4-dioxotetrahydropyrimidin-1(2H)-yl)benzyl)piperazin-1-yl)sulfonyl)-2-methylphenyl)amino)pyrimidin-4-yl)amino)-6-fluorobenzamide] | < 0.5
4 | O=C1CCC(Nc2cccc(CN3CCC(n4cc(NC(=O)c5cnn6ccc(N7C[C@H]8C[C@@H]7CO8)nc56)c(C(F)F)n4)CC3)c2)C(=O)N1 (stereo partly drawn) [GT-05052, 5-((1R,4R)-2-oxa-5-azabicyclo[2.2.1]heptan-5-yl)-N-(3-(difluoromethyl)-1-(1-(3-((2,6-dioxopiperidin-3-yl)amino)benzyl)piperidin-4-yl)-1H-pyrazol-4-yl)pyrazolo[1,5-a]pyrimidine-3-carboxamide] | 1 to 1.9
5 | COc1cc(N2CCN(Cc3cncc(C4CCC(=O)NC4=O)c3)CC2)ccc1Nc1ncc(Cl)c(Nc2ccccc2P(C)(C)=O)n1 (stereo not drawn) [GT-07714, 3-(5-((4-(4-((5-chloro-4-((2-(dimethylphosphoryl)phenyl)amino)pyrimidin-2-yl)amino)-3-methoxyphenyl)piperazin-1-yl)methyl)pyridin-3-yl)piperidine-2,6-dione] | < 0.5
6 | CC(C)(O)c1cc2nc(C3CCN(Cc4ccc(N5CCC(=O)NC5=O)cn4)CC3)oc2cc1NC(=O)c1cccc(C(F)(F)F)n1 [GT-05774, N-(2-(1-((5-(2,4-dioxotetrahydropyrimidin-1(2H)-yl)pyridin-2-yl)methyl)piperidin-4-yl)-5-(2-hydroxypropan-2-yl)benzo[d]oxazol-6-yl)-6-(trifluoromethyl)picolinamide] | 1 to 1.9
7 | Cn1cc(-c2cc(S(C)(=O)=O)ccc2OCc2ccc(N3CCC(=O)NC3=O)cn2)c2cc[nH]c2c1=O [GT-06416, 1-(6-((2-(6-methyl-7-oxo-6,7-dihydro-1H-pyrrolo[2,3-c]pyridin-4-yl)-4-(methylsulfonyl)phenoxy)methyl)pyridin-3-yl)dihydropyrimidine-2,4(1H,3H)-dione] | 1 to 1.9
8 | C#Cc1cccc(Nc2ncnc3cc(OCCOC)c(OCCOC)cc23)c1 [erlotinib, reference compound] | > 10
9 | COc1cc2nn(C3CCN(Cc4ccc(C5CCC(=O)NC5=O)cc4)CC3)cc2cc1NC(=O)c1cccc(C(F)(F)F)n1 (stereo not drawn) [GT-04761, N-(2-(1-(4-(2,6-dioxopiperidin-3-yl)benzyl)piperidin-4-yl)-6-methoxy-2H-indazol-5-yl)-6-(trifluoromethyl)picolinamide] | 0.5 to 1
10 | O=C1CCN(c2ccc(CN3C[C@H]4C[C@@H]3CN4c3ccc(-c4cc(F)c5c(c4)C(=O)N(C(C(=O)Nc4nccs4)c4ncn6c4CCC6)C5)cc3)cc2)C(=O)N1 (stereo partly drawn) [GT-06177, 2-(6,7-dihydro-5H-pyrrolo[1,2-c]imidazol-1-yl)-2-(6-(4-((1R,4R)-5-(4-(2,4-dioxotetrahydropyrimidin-1(2H)-yl)benzyl)-2,5-diazabicyclo[2.2.1]heptan-2-yl)phenyl)-4-fluoro-1-oxoisoindolin-2-yl)-N-(thiazol-2-yl)acetamide] | < 0.5
11 | CN(Cc1ccc(C2CCC(=O)NC2=O)cc1)C1CCN(c2ccc(-c3cc(F)c4c(c3)C(=O)N(C(C(=O)Nc3nccs3)c3ncn5c3CCC5)C4)cc2)CC1 (stereo not drawn) [GT-05218, 2-(6,7-dihydro-5H-pyrrolo[1,2-c]imidazol-1-yl)-2-(6-(4-(4-((4-(2,6-dioxopiperidin-3-yl)benzyl)(methyl)amino)piperidin-1-yl)phenyl)-4-fluoro-1-oxoisoindolin-2-yl)-N-(thiazol-2-yl)acetamide] | 0.5 to 1
12 | CC(=O)c1c(C)c2cnc(Nc3ccc(N4CCC(N5CCN(Cc6ccc(C7CCC(=O)NC7=O)cc6)CC5)CC4)cn3)nc2n(C2CCCC2)c1=O (stereo not drawn) [GT-06659, 3-(4-((4-(1-(6-((6-acetyl-8-cyclopentyl-5-methyl-7-oxo-7,8-dihydropyrido[2,3-d]pyrimidin-2-yl)amino)pyridin-3-yl)piperidin-4-yl)piperazin-1-yl)methyl)phenyl)piperidine-2,6-dione] | 0.5 to 1
13 | CN1CCN([C@@H]2CCCN(c3cnc(C(N)=O)c(Nc4ccc(C5CCN(Cc6cccc(NC7CCC(=O)NC7=O)c6)CC5)cc4)n3)C2)C1=O (stereo partly drawn) [GT-04804, 3-((4-(1-(3-((2,6-dioxopiperidin-3-yl)amino)benzyl)piperidin-4-yl)phenyl)amino)-5-((R)-3-(3-methyl-2-oxoimidazolidin-1-yl)piperidin-1-yl)pyrazine-2-carboxamide] | 1 to 1.9
14 | O=C1CCC(c2ccc(CN3CCC(N4CCN(c5ccc(-c6cc(F)c7c(c6)C(=O)N(C(C(=O)Nc6nccs6)c6ncn8c6CCC8)C7)cc5)CC4)CC3)cc2)C(=O)N1 (stereo not drawn) [GT-06326, 2-(6,7-dihydro-5H-pyrrolo[1,2-c]imidazol-1-yl)-2-(6-(4-(4-(1-(4-(2,6-dioxopiperidin-3-yl)benzyl)piperidin-4-yl)piperazin-1-yl)phenyl)-4-fluoro-1-oxoisoindolin-2-yl)-N-(thiazol-2-yl)acetamide] | 0.5 to 1
15 | CN(C)C/C=C/C(=O)Nc1cc2c(Nc3ccc(F)c(Cl)c3)ncnc2cc1O[C@H]1CCOC1 [afatinib] | > 10
16 | COc1cc(N2CCC(N3CCN(Cc4ccc(C5CCC(=O)NC5=O)cn4)CC3)CC2)ccc1Nc1ncc(Cl)c(Nc2ccccc2P(C)(C)=O)n1 (stereo not drawn) [GT-07613, 3-(6-((4-(1-(4-((5-chloro-4-((2-(dimethylphosphoryl)phenyl)amino)pyrimidin-2-yl)amino)-3-methoxyphenyl)piperidin-4-yl)piperazin-1-yl)methyl)pyridin-3-yl)piperidine-2,6-dione] | 0.5 to 1
17 | COc1cc(N2CCC(N(C)Cc3ccc(C4CCC(=O)NC4=O)cn3)CC2)ccc1Nc1ncc(Cl)c(Nc2ccccc2P(C)(C)=O)n1 (stereo not drawn) [GT-07698, 3-(6-(((1-(4-((5-chloro-4-((2-(dimethylphosphoryl)phenyl)amino)pyrimidin-2-yl)amino)-3-methoxyphenyl)piperidin-4-yl)(methyl)amino)methyl)pyridin-3-yl)piperidine-2,6-dione] | 1 to 1.9
18 | COc1cc2nn(C3CCN(Cc4ccc(N5CCC(=O)NC5=O)cc4)CC3)cc2cc1NC(=O)c1cccc(C(F)(F)F)c1 [GT-04752, N-(2-(1-(4-(2,4-dioxotetrahydropyrimidin-1(2H)-yl)benzyl)piperidin-4-yl)-6-methoxy-2H-indazol-5-yl)-3-(trifluoromethyl)benzamide] | 1 to 1.9
